Assay results published in PMC5733122, “Purification, Characterization, and Mode of Action of Pentocin JL-1, a Novel Bacteriocin Isolated from Lactobacillus pentosus, against Drug-Resistant Staphylococcus aureus” (BioMed Research International, 2017).

Key:
[1] = system: MRSA GIM1.771; assay: Agar-well diffusion test; format: cell-based, Staphylococcus aureus; conditions: pH 5.5
Description: The intestinal tracts of C. punctatum (grey carpet shark) were dissected and homogenized in 20 mL saline solution under sterile conditions and were then plated in serial dilutions in deMan, Rogosa, and Sharpe (MRS) medium. The plates were incubated aerobically at 30°C for 24 h. Several colonies were picked at random and incubated again in MRS broth. For screening for bacteriocin-producing strains, the agar-well diffusion test was used to detect antimicrobial activity in cell-free supernatants (filtered through a 0.22 μm Millipore filter) obtained by centrifugation (10,000g, 30 min, 4°C) after 18, 36, 60, and 72 h incubation. The Gram-positive strain MRSA GIM 1.771 and the Gram-negative strain Escherichia coli O157:H7 GIM 1.707 were used as indicator strains. Before the experiments, the indicator strains were grown to 10^6 CFU/mL. Then, 1 mL of the culture was mixed with 100 mL soft agar medium and poured onto individual Petri dishes. Subsequently, 8 mm diameter wells were punched onto the plates, and each well was filled with 100 μL of the cell-free supernatants under sterile conditions. The plates were incubated overnight at their respective optimum temperatures, and the clear zones of inhibition were measured in diameter and indicated the presence of antimicrobial activity. In our study, all bacteria culture media and chemical reagents were supplied by Sigma-Aldrich (USA).
The agar-well diffusion test as described previously was used to detect the antimicrobial activity of the purified pentocin JL-1 (15 μg/mL, pH 5.5). LAB strains were grown in MRS broth at 30°C for 16 h. Other Gram-positive indicator strains were grown in Tryptone Soy Broth (TSB) medium at 37°C and the Gram-negative indicator strains were grown in Luria-Bertani broth medium at 37°C.
(§1) The residual antibacterial activities of the above samples were calculated using the agar-well diffusion test with MRSA GIM 1.771 as the indicator strain. […] Lyophilized pentocin JL-1 dissolved in 0.05% (w/v) acetic acid at 15 μg/mL with pH 5.5 was used as a control in all assays.

[2] = system: MRSA GIM 1.771; assay: Minimal inhibitory concentration (MIC), 96-well microtiter plates; format: cell-based, Staphylococcus aureus; conditions: around 2 × 10^6 CFU/mL, 37°C, 24 h, 100% growth inhibition by absorbance at 540 nm, triplicate
Description: Additionally, the minimal inhibitory concentration (MIC) of pentocin JL-1 against MRSA GIM 1.771 was tested. Overnight culture of MRSA GIM 1.771 with the concentration of around 2 × 10^6 CFU/mL was collected and 50 μL of each was grown in 96 well-microtiter plates (Bio-Rad, USA) with different concentrations of pentocin JL-1, ranging from 50 ng/mL to 15 μg/mL, at 37°C for 24 h. Each concentration was done in triplicate. The MIC represents the bacteriocin concentration at which 100% of growth is inhibited measured by the absorbance at 540 nm.

[3] = Thermal sensitivity, residual antibacterial activity; format: physicochemical; conditions: for Residual inhibitory activity (inhibition zone diameter, mm): 15 μg/mL in 0.05% (w/v) acetic acid, agar-well diffusion vs MRSA GIM 1.771, mean ± SD, triplicate; for Residual inhibitory activity (%): 15 μg/mL in 0.05% acetic acid, vs MRSA GIM 1.771, relative to control
Description: To determine thermal sensitivity, lyophilized purified pentocin JL-1 dissolved in 0.05% (w/v) acetic acid at 15 μg/mL was evaluated at different temperatures (−20°C, 4°C, 30°C, 60°C, and 100°C) for 1 h and also at the autoclaved condition (121°C at 15 psi for 15 min).
as §1

[4] = target: T1, proteinase K (Parengyodontium album, UniProt P06873); assay: Enzymatic sensitivity, residual antibacterial activity; format: in vitro ADME; conditions: 1 h
T1 construct: purchased Sigma-Aldrich
T1 sequence (P06873 106-384): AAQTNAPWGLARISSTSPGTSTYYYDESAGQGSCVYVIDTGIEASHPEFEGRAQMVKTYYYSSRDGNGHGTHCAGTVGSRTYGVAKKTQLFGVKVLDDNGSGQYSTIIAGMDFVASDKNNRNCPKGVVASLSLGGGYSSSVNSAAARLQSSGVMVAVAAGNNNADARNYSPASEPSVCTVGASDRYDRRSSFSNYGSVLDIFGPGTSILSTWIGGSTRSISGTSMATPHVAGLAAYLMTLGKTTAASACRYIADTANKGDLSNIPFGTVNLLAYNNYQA
Description: […] After incubation for 1 h, the bacteriocin-enzyme mixture was boiled for 5 min to inactivate the enzymes.
as §1

[5] = system: MRSA GIM 1.771; assay: Time-killing kinetics, viable cell counts; format: cell-based, Staphylococcus aureus; conditions: for instantaneous killing action, log10 reduction: at 0 h, viable cell counts on TSB agar, exponential-phase culture, 37°C
Description: (§2) The bacteriostatic or bactericidal mode of action of pentocin JL-1 was tested as described previously by Zhu et al. with some modifications. MRSA GIM 1.771 was cultivated to the exponential phase in 100 mL of TSB culture medium. The lyophilized purified pentocin JL-1 dissolved in 0.05% (w/v) acetic acid was added to the cultures at a final concentration of 1x MIC and the same volume of 0.05% (w/v) acetic acid was added to the aforementioned media as a control. Samples were incubated at 37°C and bacterial suspensions were taken each hour for 24 h, and the absorbance was measured at OD600. In addition, the viable cell counts on TSB agar medium after the addition of 1x MIC, 2x MIC, and 3x MIC of pentocin JL-1 were also quantified every 10 min for 1 h.

[6] = system: MRSA GIM 1.771 cells; assay: Transmembrane pH gradient (ΔpH), BCECF AM fluorescence; format: cell-based, Staphylococcus aureus; conditions: 1x MIC and 2x MIC, compared with 1% Triton X-100, 400 s
Description: ΔpH was monitored by the fluorescent pH probe 2′,7′-bis-(2-carboxyethyl)-5-(and-6)-carboxyfluorescein, acetoxymethyl ester (BCECF AM) (Beyotime, China). MRSA GIM 1.771 cells were grown to the exponential phase in 50 mL TSB culture medium, harvested, washed twice with 50 mL 5 mM HEPES buffer at 4°C, and resuspended in 5 mL of the same buffer for incubation on ice for 1 h. Subsequently, the 1 μM BCECF AM pH probe was added and the solution was incubated at 37°C for 1 h in the dark. Then 1 mL of the incubated solution was added to a fluorescence cuvette together with a final concentration of 1x, 2x, and 3x MIC of pentocin JL-1, respectively. Acetic acid (0.05%, w/v) was used as a negative control and 1% (w/v) Triton X-100 was used as a positive control. To the control, an equivalent volume of 3x MIC of pentocin JL-1 was added. The fluorescence intensity was monitored at 50 s intervals for 400 s immediately after mixing at Ex 488 nm and Em 535 nm using an F-4600 spectrofluorometer (Hitachi, Japan).

[7] = system: MRSA GIM 1.771; assay: Growth curve, OD600; format: cell-based, Staphylococcus aureus; conditions: 1x MIC added after 6 h (exponential phase), TSB, 37°C, 24 h
Description: as §2

[8] = 121°C, 15 min (autoclaved, 15 psi)

VAKVAR [pentocin JL-1, novel bacteriocin produced by Lactobacillus pentosus JL-1, purified by four-step chromatography, molecular mass 2987.23 Da, cationic and hydrophobic peptide]
Residual inhibitory activity (%) ([1]; Control: untreated pentocin JL-1 15 μg/mL in 0.05% (w/v) acetic acid): 100.00% | Residual inhibitory activity (inhibition zone diameter, mm) ([1]; Control: untreated pentocin JL-1 15 μg/mL in 0.05% (w/v) acetic acid, mean ± SD, triplicate): 23.9 ± 0.7 mm | Antimicrobial activity ([1]; agar-well diffusion, purified pentocin JL-1 15 μg/mL, inhibition zone diameter class incl. 8 mm well): +++ (+++: 20–25) | MIC [2]: 7.5 µg/mL | Residual inhibitory activity (inhibition zone diameter, mm) ([3]; 4°C, 1 h): 23.8 ± 1.2 mm | Residual inhibitory activity (%) ([3]; 4°C, 1 h): 99.58% | Residual inhibitory activity (inhibition zone diameter, mm) ([3]; 30°C, 1 h): 23.9 ± 0.2 mm | Residual inhibitory activity (%) ([3]; 30°C, 1 h): 100.00% | Residual inhibitory activity (inhibition zone diameter, mm) ([3]; 60°C, 1 h): 23.6 ± 0.8 mm | Residual inhibitory activity (%) ([3]; 60°C, 1 h): 98.74% | Residual inhibitory activity (inhibition zone diameter, mm) ([3]; 100°C, 1 h): 22.6 ± 0.8 mm | Residual inhibitory activity (inhibition zone diameter, mm) [3, 8]: 20.1 ± 0.9 mm | Residual inhibitory activity (%) [3, 8]: 84.10^∗ % | Residual inhibitory activity (inhibition zone diameter, mm) ([3]; −20°C, 1 h): 22.2 ± 1.0 mm | Residual inhibitory activity (inhibition zone diameter, mm) ([4]; Proteinase K 75 μg/mL (pH 7.5, 55°C), then boiled 5 min, pentocin JL-1 15 μg/mL, agar-well diffusion vs MRSA GIM 1.771, mean ± SD, triplicate): 17.3 ± 1.2 mm | Residual inhibitory activity (%) ([4]; Proteinase K 75 μg/mL (pH 7.5, 55°C), pentocin JL-1 15 μg/mL, vs MRSA GIM 1.771, relative to control): 72.38^∗ % | inhibitory action after enzyme treatment ([4]; proteinase K 75 μg/mL, p < 0.05): significantly reduced | instantaneous killing action, log10 reduction ([5]; 1x MIC): 1.05 log10 | mode of action (bacteriostatic or bactericidal) ([5]; 1x, 2x, 3x MIC, viable counts over 1 h): bactericidal | instantaneous killing action, log10 reduction ([5]; 2x MIC): 2.14 log10 | instantaneous killing action, log10 reduction ([5]; 3x MIC): 2.21 log10 | extent of ΔpH dissipation [6]: incompletely dissipated | OD600 values after addition [7]: nearly stable
